Measured values taken from patent US20250313879A1, “Fluorescent Probe for Detecting Peptide Bond Hydrolase” (The University of Tokyo, priority 2022, published 2025).
≈ marks a conversion by molar mass, not a printed value.

Tests used:
[1] = tested on: dipeptidyl peptidase; assay: Signal/noise ratio of enzymolysate in microdevice; format: biochemical; details: 30 μM probe, 0.2 ng/mL dipeptidyl peptidase, 25° C. 2 hours
Experimental: (§1) For two types of compounds Glu-sSiR (PB206/Example 12) and GP-sHMRG (PB109/Example 7), the signal/noise ratios of the enzymolysates before and after the enzyme reaction in the cuvette and the microdevice were each measured as follows. In the following experiments, the composition of the assay buffer is 100 mM HEPES-NaOH (pH 7.4), 1 mM MgCl2, 1 mM CaCl2), […].
For GP-sHMRG, three kinds of solutions of (iv) only an assay buffer, (v) 30 μM of GP-sHMRG, and (vi) 30 μM of GP-sHMRG and 0.2 ng/mL of dipeptidyl peptidase were prepared, and each solution was added to a microdevice, followed by the addition of sealing oil to enclose the solution in each well. The microdevice in which the solution was enclosed was incubated at 25° C. for 2 hours, and then the fluorescence intensity of each well was measured with a fluorescence microscope. When a difference between the average values of the fluorescence intensities of the respective wells in (v) and (iv) was defined as noise, a difference between the average value of the fluorescence intensities of the wells in which the enzyme was encapsulated in (vi) and the average value of the fluorescence intensities of the respective wells in (iv) was defined as a signal, and a ratio of these values was calculated as the signal/noise ratio of the enzymolysate, the ratio was 287 times (see FIG. 8, panel B). […]

[2] = tested on: dipeptidyl peptidase; assay: Signal/noise ratio of enzymolysate in cuvette; format: biochemical; details: 10 μM probe, 17 ng/mL dipeptidyl peptidase, 25° C. 9 hours, @527 nm
Experimental: as §1
GP-sHMRG was diluted with an assay buffer so as to be 10 μM, then added to a quartz cuvette, and the fluorescence spectrum before the enzyme reaction was measured with a fluorometer (excitation wavelength: 500 nm). Thereafter, dipeptidyl peptidase was added so that the concentration in the solution was 17 ng/mL, the solution was incubated at 25° C. for 9 hours, and then the fluorescence spectrum was measured. The fluorescence spectra before and after the enzyme reaction were compared, the ratio of the values at a wavelength at which the fluorescence intensity was maximized was calculated as the signal/noise ratio of the enzymolysate, the ratio was 481 times (@527 nm) (see FIG. 7B).

[3] = target: T1, DPP4 (Homo sapiens, UniProt P27487); assay: Diagnostic experiment of pancreatic cancer utilizing single-molecule enzyme activity of DPP4; format: biochemical
T1 construct: from tissue; host or cells: human plasma of pancreatic cancer patients and healthy subjects
T1 sequence (P27487 whole entry): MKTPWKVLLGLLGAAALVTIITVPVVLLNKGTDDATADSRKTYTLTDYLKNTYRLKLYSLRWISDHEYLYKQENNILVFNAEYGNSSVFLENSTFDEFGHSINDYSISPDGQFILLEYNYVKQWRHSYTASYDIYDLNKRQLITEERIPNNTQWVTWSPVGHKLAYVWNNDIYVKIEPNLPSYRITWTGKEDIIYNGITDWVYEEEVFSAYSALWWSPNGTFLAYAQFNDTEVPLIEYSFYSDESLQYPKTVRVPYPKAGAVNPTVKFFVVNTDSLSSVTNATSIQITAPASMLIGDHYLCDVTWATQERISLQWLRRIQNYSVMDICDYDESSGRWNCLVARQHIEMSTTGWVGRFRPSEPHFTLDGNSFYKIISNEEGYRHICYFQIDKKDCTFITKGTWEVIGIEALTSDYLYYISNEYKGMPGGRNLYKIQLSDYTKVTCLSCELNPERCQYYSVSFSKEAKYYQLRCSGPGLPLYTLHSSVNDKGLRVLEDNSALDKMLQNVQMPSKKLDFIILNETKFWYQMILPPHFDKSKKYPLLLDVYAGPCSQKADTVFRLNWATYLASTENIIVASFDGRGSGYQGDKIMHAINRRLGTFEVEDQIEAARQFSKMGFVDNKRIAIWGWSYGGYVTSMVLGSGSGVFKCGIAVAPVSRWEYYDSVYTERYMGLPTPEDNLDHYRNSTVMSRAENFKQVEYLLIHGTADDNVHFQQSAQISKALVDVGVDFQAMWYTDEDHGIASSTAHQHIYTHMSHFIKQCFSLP
Experimental: In order to detect the single-molecule enzyme activity of DPP4, an experiment to verify the availability of the probe GP-sHMRG to which Gly-Pro is bonded as a reaction point to detect a pancreatic cancer biomarker was performed in the following procedures. • 1. GP-sHMRG as a DPP4 detecting probe was diluted with an assay buffer to 100 μM. The composition of the assay buffer is 100 mM HEPES-NaOH (pH 7.4), 1 mM MgCl2, 1 mM CaCl2), 1 mM DTT, 3 mM Triton X-100. • 2. Next, human plasma samples collected from 30 patients with pancreatic cancer and 30 healthy subjects were each diluted by 2,500 times with the above assay buffer, and mixed in an equal amount with the diluted solution of GP-sHMRG. At this time, the final concentrations of both are 50 μM for the GP-sHMRG probe and 5,000 fold dilution for the human plasma sample. • 3. The mixed solution of both was then added to a microdevice, followed by the addition of sealing oil to enclose the solution in each well. • 4. The microdevice in which the solution was enclosed was incubated at 25° C. for 2 hours, and then the fluorescence intensity of each well was measured with a fluorescence microscope. […] The histogram created based on the detected fluorescence intensity of each well is approximated to a curve including two normal distributions.
Specifically, in this example, an ROC curve for determination based on the enzyme activity of DPP4 determined based on the proportion of the high activity group is created, and when a threshold is subtracted at the time when the proportion of the high activity group is 55%, the sensitivity is 37% and the specificity is 97% (the right view of FIG. 4). It is possible to determine pancreatic cancer by such an ROC curve.

[4] = Solubility in sealing oil (hexadecane); format: physicochemical; details: oil or lipid, kinetic from dmso stock, room temperature (25° C.), three tests, average value±standard deviation
Experimental: That is, 1 μL of a 10 mM DMSO solution of the test compound was added with respect to 100 μL of hexadecane as sealing oil, and the mixture was sonicated and suspended at room temperature (25° C.) for 1 minute. Thereafter, the solution was centrifuged for 30 seconds, 50 μL of the supernatant was collected and mixed with 100 μL of methanol, and a compound dissolved in hexadecane was extracted. Thereafter, the methanol solution from which the compound was extracted was analyzed by ultra performance liquid chromatography (UPLC) (eluent: A/B=95/5>5/95, A: 0.1% formic acid-containing 100% H2O, B: 0.1% formic acid-containing 100% CH3CN), and the concentration of the compound in the methanol solution was calculated from the peak area. In the calculation of the solution concentration using the UPLC peak area, solutions having a plurality of concentrations were prepared and measured for each compound, then a calibration curve was prepared (FIG. 5), and the calculation was performed according to the calibration curve.

[5] = tested on: peptidase activity in human plasma sample; assay: Enzyme activity assay in microdevice with human plasma, peptidase probes; format: biochemical; details: 50 μM probe, human plasma 5,000 fold dilution, 25° C. for 2 hours
Experimental: (§2) • 1. GP-sHMRG as a fluorescent probe for detecting peptidase activity was diluted with an assay buffer to 100 μM. The composition of the assay buffer is 100 mM HEPES-NaOH (pH 7.4), 1 mM MgCl2, 1 mM CaCl2, 1 mM DTT, 3 mM Triton X-100. • 2. Next, a human plasma sample was diluted by 2,500 times with the above assay buffer, and mixed in an equal amount with the diluted solution of the probe. At this time, the final concentrations of both are 50 μM for GP-sHMRG and 5,000 fold dilution for the human plasma sample. • 3. The mixed solution of both was then added to a microdevice, followed by the addition of sealing oil to enclose the solution in each well. • 4. The microdevice in which the solution was enclosed was incubated at 25° C. for 2 hours, and then the fluorescence intensity of each well was measured with a fluorescence microscope.
as §2, with “1. Ac-Ala-sHMRG” for “1. GP-sHMRG”, “by 250” for “by 2,500”, “for Ac-Ala-sHMRG” for “for GP-sHMRG”, “and 500” for “and 5,000”, “at 37°” for “at 25°”, “for 4” for “for 2”
• 1. Ac-GP-sSiR as a fluorescent probe for detecting peptidase activity was diluted with an assay buffer to 100 μM. The composition of the assay buffer is 100 mM HEPES-NaOH (pH 7.4), 1 mM MgCl2, 1 mM CaCl2, 1 mM DTT, 3 mM Triton X-100. • 2. […] The microdevice in which the solution was enclosed was incubated at 37° C. for 2 hours, and then the fluorescence intensity of each well was measured with a fluorescence microscope.

[6] = threshold: proportion of the high activity group is 55%, pancreatic cancer vs healthy

signal/noise ratio of the enzymolysate [1]: 287 times | signal/noise ratio of the enzymolysate [2]: 481 times | ratio of the high activity group to the total of high and low activity groups ([3]; patients with pancreatic cancer compared with healthy subjects, 50 μM probe, plasma 5,000 fold dilution, 25° C. 2 hours): significant increase | sensitivity (ROC curve, DPP4 activity) [3, 6]: 37% | specificity (ROC curve, DPP4 activity) [3, 6]: 97% | solubility at 1 min [4]: 0.27 ± 0.026 µM (≈ 0.149 µg/mL)
Structure (SMILES): NCC(=O)N1CCCC1C(=O)Nc1ccc2c(c1)Oc1cc(N)ccc1C21OCc2cc(S(=O)(=O)O)ccc21 (stereo not shown) [GP-sHMRG]
fluorescence intensity of wells in which the reacting enzyme was enclosed [5]: increase in fluorescence intensity was observed
